Results on 56 compounds are retold here after the RepoRT retention time repository (doi:10.1016/j.scitotenv.2015.08.078).

This data set is described as follows: RP, Waters ACQUITY UPLC BEH C18, 100 × 2.1 mm, 1.7 µm, 0.3 mL/min, estimated dead time 0.73 min; A: water + 0.1% formic acid, pH 3; B: methanol + 0.1% formic acid, pH 3; gradient (min/%B) 0/10 14/90 16/90 18/10. The settings on record: stereoisomer not certain.
As to `CCC(=O)OC1(C(=O)CCl)C(C)CC2C3CCC4=CC(=O)C=CC4(C)C3(F)C(O)CC21C` (stereo unspecified) [Clobetasol propionate], the LC retention time is 11.4 min.
`Clc1ccc(CSC(Cn2cncn2)=Nc2ccc(Cl)cc2Cl)cc1` [Imibenconazole]: the LC retention time was 13 min.
`COC(=O)c1sccc1S(=O)(=O)NC(=O)Nc1nc(C)nc(OC)n1` [Thifensulfuron methyl]: the LC retention time is 5.04 min.
The value for `CCC(=O)OCC(=O)C1(OC(=O)CC)C(C)CC2C3CCC4=CC(=O)C=CC4(C)C3(Cl)C(O)CC21C` (stereo unspecified) [Beclometasone dipropionate] was 12.3 min.
On to `CCCS(=O)(=O)c1ccc2nc(NC(=O)OC)[nH]c2c1` [Albendazole sulfone], for which the LC retention time is 6.16 min.
For the compound `CCC(C)c1ccccc1OC(=O)NC` (stereo unspecified) [Fenobucarb], the LC retention time was 9.78 min.
For `CC1Cc2c(Cl)cc(C(=O)O)c(O)c2C(=O)O1` (stereo not drawn) [Ochratoxin Alpha], the LC retention time is 11.2 min.
On to `Cc1cc(C2CC2)nc(Nc2ccccc2)n1` [Cyprodinil], for which the LC retention time is 10.7 min.
Turning to `COP(=O)(OC)SCn1c(=O)oc2cc(Cl)cnc21` [Azamethiphos], the LC retention time was 7.22 min.
For the compound `OC(CCCN1CCN(c2ccccn2)CC1)c1ccc(F)cc1` (stereo unspecified) [Azaperol], the LC retention time is 4.96 min.
Consider `CCCCCCCCn1sccc1=O` [Octhilinone (2-Octyl-4-isothiazoline-3-one)], for which the LC retention time is 11 min.
Consider `CCOP(=S)(Oc1ccc(C#N)cc1)c1ccccc1` (stereo unspecified) [Cyanofenphos], for which the LC retention time was 11.7 min.
On to `CON(C)C(=O)Nc1ccc(Br)c(Cl)c1` [Chlorbromuron], for which the LC retention time is 10.1 min.
As for `CCn1cc(C(=O)O)c(=O)c2cc(F)c(N3CCN(C)CC3)cc21` [Pefloxacin], the LC retention time is 4.09 min.
The same measure for `CC12Cc3cn[nH]c3CC1CCC1C2CCC2(C)C1CCC2(C)O` (stereo unspecified) [Stanozolol]: 12 min; for `Cc1cc(C)nc(NS(=O)(=O)c2ccc(N)cc2)n1` [Sulfamethazine]: 3.59 min.
As to `COP(=S)(OC)Oc1ccc(Sc2ccc(OP(=S)(OC)OC)cc2)cc1` [Temephos (Abate)], the LC retention time is 13 min.
`CCC1CCCC(OC2CCC(N(C)C)C(C)O2)C(C)C(=O)C2=CC3C(C=C(C)C4CC(OC5OC(C)C(OC)C(OC)C5OC)CC43)C2CC(=O)O1` (stereo unspecified) [Spinosyn D]: the LC retention time was 12.5 min.
For `CCCCc1c(C)nc(NCC)[nH]c1=O` [Ethirimol], the LC retention time was 8.99 min.
The same measure for `CC1(C)SC2C(NC(=O)Cc3ccccc3)C(=O)N2C1C(=O)O` (stereo unspecified) [Penicillin G]: 8.55 min; for `CC(C)NC(=O)N1CC(=O)N(c2cc(Cl)cc(Cl)c2)C1=O` [Iprodione]: 11.9 min; for `CCCCCCCCSC(=O)Oc1cc(Cl)nnc1-c1ccccc1` [Pyridate]: 14.3 min.
With `CNC(=O)C=C(C)OP(=O)(OC)OC` [Monocrotophos], the LC retention time is 3.57 min.
Regarding `O=C(O)c1ccccc1O` [Salicylic acid], the LC retention time was 4.4 min.
With `O=C1Nc2ccc(Cl)cc2C(c2ccccc2Cl)=NC1O` (stereo unspecified) [Lorazepam], the LC retention time was 9.87 min.
Turning to `COC(=O)C(C)Oc1ccc(Oc2ncc(C(F)(F)F)cc2Cl)cc1` (stereo unspecified) [Haloxyfop-methyl], the LC retention time is 12.6 min.
`COc1nc(C)nc(NC(=O)NS(=O)(=O)c2ccccc2Cl)n1` [Chlorsulfuron]: the LC retention time was 7.94 min.
The same measure for `CCC1(C2OC(C3OC(O)(CO)C(C)CC3C)CC2C)CCC(C2(C)CCC3(CC(O)C(C)C(C(C)C(OC)C(C)C(=O)O)O3)O2)O1` (stereo unspecified) [Monensin]: 15.3 min.
For `O=C(NC(=O)c1c(F)cccc1F)Nc1cc(Cl)c(OC(F)(F)C(F)F)c(Cl)c1` [Hexaflumuron], the LC retention time was 12.6 min.
With `CSc1nc(NC(C)C)nc(NC(C)C)n1` [Prometryn], the LC retention time is 10.8 min.
In the case of `COC(=O)c1cc(Oc2ccc(Cl)cc2Cl)ccc1[N+](=O)[O-]` [Bifenox], the LC retention time was 12.2 min.
As to `COP(=O)(OC)Oc1ccc(S(C)=O)c(C)c1` (stereo unspecified) [Fenoxon sulfoxide], the LC retention time is 5.14 min.
Turning to `COP(=O)(OC)Oc1ccc(S(C)(=O)=O)c(C)c1` [Fenoxon sulfone], the LC retention time is 5.35 min.
For the compound `CC(C)(C)C(=O)C(Oc1ccc(Cl)cc1)n1cncn1` (stereo unspecified) [Triadimefon], the LC retention time is 10.6 min.
With `COC=C(C(=O)OC)c1ccccc1Oc1cc(Oc2ccccc2C#N)ncn1` [Azoxystrobin], the LC retention time is 10.6 min.
Turning to `CN(C)C(=O)Nc1ccc(-n2nc(C(C)(C)C)oc2=O)c(Cl)c1` [Dimefuron], the LC retention time is 9.63 min.
As to `CCOP(=S)(OCC)SCn1c(=O)oc2cc(Cl)ccc21` [Phosalone], the LC retention time is 12 min.
`COP(=S)(OC)Oc1ccc(SC)c(C)c1` [Fenthion]: the LC retention time was 11.7 min.
In the case of `Cc1cc(C)nc(Nc2ccccc2)n1` [Pyrimethanil], the LC retention time was 9.86 min.
As for `CC(C)N1C(=O)N(c2ccccc2)CSC1=NC(C)(C)C` [Buprofezin], the LC retention time is 13.1 min.
With `CCS(=O)CCSP(=O)(OC)OC` (stereo unspecified) [Oxydemeton-methyl], the LC retention time was 3.15 min.
As for `CC1=C(C(=O)O)N2C(=O)C(NC(=O)C(N)c3ccc(O)cc3)C2SC1` (stereo unspecified) [Cefadroxil], the LC retention time is 4.91 min.
In the case of `CN1C(=O)CN=C(c2ccccc2)c2cc(Cl)ccc21` [Diazepam], the LC retention time is 10.9 min.
In the case of `CCCCC(C#N)(Cn1cncn1)c1ccc(Cl)cc1` (stereo unspecified) [Myclobutanil], the LC retention time was 10.6 min.
As to `CCCSP(=O)(OCC)Oc1cnn(-c2ccc(Cl)cc2)c1` (stereo unspecified) [Pyraclofos], the LC retention time is 12 min.
In the case of `CCCCC1=NC2(CCCC2)C(=O)N1Cc1ccc(-c2ccccc2-c2nn[nH]n2)cc1` [Irbesartan], the LC retention time is 10.4 min.
As for `CC(=O)OCC(=O)C1(O)CCC2C3CCC4=CC(=O)C=CC4(C)C3C(O)CC21C` (stereo unspecified) [Prednisolone 21-acetate], the LC retention time was 9.54 min.
Take `CCNc1nc(NC(C)C)nc(SC)n1` [Ametryn]: the LC retention time was 9.9 min.
In the case of `CC12CCC3C4CCC(=O)C=C4CCC3C1CCC2O` (stereo not drawn) [Nandrolone. beta-nortestosterone], the LC retention time was 10.6 min.
On to `Cn1c([N+](=O)[O-])cnc1CO` [HMMNI (Hydroxy Dimetridazole)], for which the LC retention time is 2.23 min.
With `Cc1ccc(N(SC(F)(Cl)Cl)S(=O)(=O)N(C)C)cc1` [Tolyfluanid], the LC retention time was 12.4 min.
As to `Clc1ccc(C2(Cn3cncn3)CC(Br)CO2)c(Cl)c1` (stereo unspecified) [Bromuconazole I], the LC retention time is 10.6 min.
`Cc1cccc(C)c1NC1=NCCCS1` [Xylazine]: the LC retention time is 4.92 min.
Regarding `COC(=O)C=C(C)OP(=O)(OC)OC` [Mevinphos trans], the LC retention time was 4.95 min.
As to `CCSCc1ccccc1OC(=O)NC` [Ethiofencarb], the LC retention time was 8.89 min.
For the compound `COc1cc2c(c3oc(=O)c4c(c13)CCOC4=O)C1CCOC1O2` (stereo unspecified) [Aflatoxin G2], the LC retention time is 6.71 min.
